Data taken from article PMC12648285 (JACS Au, 2025).

How the values were obtained:
A549 cells [1] = experiment: Anti-proliferative assay, A549 cells; type: cell-based; settings: 72 h
GAC (73-598) = experiment: Intact protein mass spectrometry, covalent modification of GAC; type: binding
TRKA (440-796) [2] = target: T1, TRKA (440-796) (Homo sapiens, UniProt P04629); experiment: Site mapping using LC-MS/MS, TRKA+7; type: binding
TRKA = TRKA (Homo sapiens, UniProt P04629); experiment: TRKA kinase biochemical assay
[3] = system: p-TRKA and p-AKT in KM12-Luc cells; experiment: Western blot of TRKA activation and downstream signalling in KM12-Luc cells; type: cell-based; settings: 6 h
TRKA (440-796) [4] = target: T1, TRKA (440-796); experiment: Time-dependent intact protein mass; type: binding
TRKC = TRKC (Homo sapiens, UniProt Q16288); experiment: TRKC kinase biochemical assay
[5] = target: TRKA kinase domain (440-796) (Homo sapiens, UniProt P04629); experiment: Intact protein mass spectrometry, covalent labelling of TRKA; type: binding; settings: intact protein MS, 2 h incubation, 25 °C, compound/protein 10:1
TRKB = TRKB (Homo sapiens, UniProt Q16620); experiment: TRKB kinase biochemical assay
A549 cells [6] = experiment: Determination of reactive oxygen species; type: cell-based; settings: 16 h, flow cytometry
GAC^WT and GAC^K320A = experiment: Western blot of acetylation of GAC WT and GAC K320A; type: biochemical; settings: 45 min
A549 cells [7] = experiment: Determination of intracellular glutamate and glutamine levels; type: cell-based; settings: 16 h treatment
GAC = target: T2, GAC (Macaca mulatta, UniProt F7AIH5); experiment: Recombinant GAC enzymatic assay; type: biochemical
T2 sequence (F7AIH5 73-598): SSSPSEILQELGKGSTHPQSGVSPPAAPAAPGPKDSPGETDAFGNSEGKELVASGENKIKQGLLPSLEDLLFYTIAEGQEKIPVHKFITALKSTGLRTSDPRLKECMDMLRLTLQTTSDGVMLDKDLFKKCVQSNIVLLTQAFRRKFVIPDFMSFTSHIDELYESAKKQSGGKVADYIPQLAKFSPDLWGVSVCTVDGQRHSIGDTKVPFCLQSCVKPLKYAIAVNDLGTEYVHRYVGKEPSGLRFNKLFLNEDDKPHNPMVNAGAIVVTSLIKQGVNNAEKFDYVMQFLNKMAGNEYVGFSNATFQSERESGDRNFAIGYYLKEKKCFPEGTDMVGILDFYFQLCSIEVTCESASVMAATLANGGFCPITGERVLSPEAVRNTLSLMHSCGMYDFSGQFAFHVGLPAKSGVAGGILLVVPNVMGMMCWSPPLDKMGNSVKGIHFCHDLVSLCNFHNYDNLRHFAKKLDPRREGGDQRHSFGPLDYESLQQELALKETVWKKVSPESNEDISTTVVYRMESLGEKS

[8] = time-dependent intact protein MS, TRKA

T1 sequence (P04629 440-796): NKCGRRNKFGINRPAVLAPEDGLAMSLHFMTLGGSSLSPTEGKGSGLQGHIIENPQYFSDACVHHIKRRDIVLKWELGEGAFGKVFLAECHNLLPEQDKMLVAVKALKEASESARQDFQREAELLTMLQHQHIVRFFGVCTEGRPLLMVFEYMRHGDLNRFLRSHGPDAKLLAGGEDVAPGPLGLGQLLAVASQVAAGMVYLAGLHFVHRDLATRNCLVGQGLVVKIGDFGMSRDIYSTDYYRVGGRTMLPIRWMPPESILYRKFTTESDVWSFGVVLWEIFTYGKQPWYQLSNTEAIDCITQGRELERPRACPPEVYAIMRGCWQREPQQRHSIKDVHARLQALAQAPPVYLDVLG
TRKB, sequence (Q16620 32-822): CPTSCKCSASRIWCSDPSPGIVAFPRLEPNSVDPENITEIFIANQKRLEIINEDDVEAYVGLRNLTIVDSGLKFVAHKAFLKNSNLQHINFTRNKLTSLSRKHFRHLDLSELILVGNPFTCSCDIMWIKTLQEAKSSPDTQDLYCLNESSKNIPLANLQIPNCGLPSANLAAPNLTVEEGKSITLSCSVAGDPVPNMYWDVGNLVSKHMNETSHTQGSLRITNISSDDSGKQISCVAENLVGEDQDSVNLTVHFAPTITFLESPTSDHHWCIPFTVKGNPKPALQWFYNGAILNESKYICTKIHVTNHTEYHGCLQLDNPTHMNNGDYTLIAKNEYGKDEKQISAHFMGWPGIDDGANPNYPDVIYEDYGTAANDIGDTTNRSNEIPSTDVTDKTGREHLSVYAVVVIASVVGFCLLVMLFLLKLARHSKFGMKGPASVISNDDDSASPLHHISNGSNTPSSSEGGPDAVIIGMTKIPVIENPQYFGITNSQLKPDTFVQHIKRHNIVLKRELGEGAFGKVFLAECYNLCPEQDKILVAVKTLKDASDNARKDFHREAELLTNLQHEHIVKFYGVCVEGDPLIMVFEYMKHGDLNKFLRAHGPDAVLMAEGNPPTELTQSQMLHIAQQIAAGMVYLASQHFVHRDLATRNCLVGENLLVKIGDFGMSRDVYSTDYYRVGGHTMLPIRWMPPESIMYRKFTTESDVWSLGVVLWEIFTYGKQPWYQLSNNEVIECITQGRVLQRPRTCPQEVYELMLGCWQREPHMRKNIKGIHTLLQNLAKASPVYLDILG
TRKA kinase domain (440-796), sequence (P04629 440-796): as the sequence (P04629 440-796) above
TRKC, sequence (Q16288 32-839): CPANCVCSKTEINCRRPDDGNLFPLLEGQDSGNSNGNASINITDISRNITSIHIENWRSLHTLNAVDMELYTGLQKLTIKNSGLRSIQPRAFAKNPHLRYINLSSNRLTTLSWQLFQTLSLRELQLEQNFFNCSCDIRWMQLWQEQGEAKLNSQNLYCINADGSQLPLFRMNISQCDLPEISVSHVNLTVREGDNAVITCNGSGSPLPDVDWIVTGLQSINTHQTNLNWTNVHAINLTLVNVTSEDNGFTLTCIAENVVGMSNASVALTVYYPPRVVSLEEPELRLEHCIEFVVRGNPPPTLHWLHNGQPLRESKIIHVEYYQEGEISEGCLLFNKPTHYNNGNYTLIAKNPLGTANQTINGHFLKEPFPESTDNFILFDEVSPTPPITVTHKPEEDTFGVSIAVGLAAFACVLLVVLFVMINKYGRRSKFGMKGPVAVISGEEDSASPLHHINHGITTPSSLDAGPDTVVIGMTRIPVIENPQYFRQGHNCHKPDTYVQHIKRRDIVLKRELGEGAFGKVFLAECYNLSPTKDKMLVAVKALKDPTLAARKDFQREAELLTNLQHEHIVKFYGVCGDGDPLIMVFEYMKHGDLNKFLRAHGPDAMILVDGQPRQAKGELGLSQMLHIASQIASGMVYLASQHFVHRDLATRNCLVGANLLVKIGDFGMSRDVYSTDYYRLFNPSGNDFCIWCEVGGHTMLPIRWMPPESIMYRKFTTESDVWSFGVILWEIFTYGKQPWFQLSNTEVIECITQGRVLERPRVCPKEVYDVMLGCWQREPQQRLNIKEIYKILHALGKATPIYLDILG
TRKA, sequence (P04629 33-796): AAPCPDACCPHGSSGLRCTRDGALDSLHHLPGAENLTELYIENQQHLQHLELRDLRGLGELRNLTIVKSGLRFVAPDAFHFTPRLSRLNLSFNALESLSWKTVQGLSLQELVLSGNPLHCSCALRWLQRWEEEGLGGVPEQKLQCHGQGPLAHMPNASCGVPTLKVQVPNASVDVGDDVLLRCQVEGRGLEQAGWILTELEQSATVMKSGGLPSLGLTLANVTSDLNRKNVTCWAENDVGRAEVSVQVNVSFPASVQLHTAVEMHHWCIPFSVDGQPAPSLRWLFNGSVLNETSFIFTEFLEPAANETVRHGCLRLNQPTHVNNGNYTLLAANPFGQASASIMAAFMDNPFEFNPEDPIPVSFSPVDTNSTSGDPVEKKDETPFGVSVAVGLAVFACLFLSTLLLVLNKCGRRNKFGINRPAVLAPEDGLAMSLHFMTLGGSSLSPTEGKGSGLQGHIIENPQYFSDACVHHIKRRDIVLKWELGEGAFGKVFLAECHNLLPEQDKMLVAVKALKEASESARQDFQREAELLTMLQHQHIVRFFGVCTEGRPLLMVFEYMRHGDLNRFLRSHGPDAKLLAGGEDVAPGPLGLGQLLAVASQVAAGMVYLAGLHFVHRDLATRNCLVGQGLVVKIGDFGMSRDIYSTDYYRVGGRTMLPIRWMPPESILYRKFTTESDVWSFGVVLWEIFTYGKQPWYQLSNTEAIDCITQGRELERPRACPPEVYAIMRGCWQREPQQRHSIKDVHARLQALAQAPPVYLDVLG

Structure (SMILES): C#Cc1c(C=O)cccc1CC(=O)Nc1nnc(N[C@@H]2CCN(c3cccnn3)C2)s1 [Compound 14]
- Cellular activity (A549 antiproliferative) (A549 cells [1]): limited efficacy
- Covalent modification of GAC by intact protein MS (GAC (73-598); 8 h, 25 °C): confirmed covalent modification of GAC
- Labeling efficiency of GAC (GAC (73-598); intact protein MS, 8 h, 25 °C, theoretical maximum 50%): ~45%

Structure (SMILES): C#Cc1cc(-c2cc(Nc3nc(N[C@@H](C)c4ccc(F)cn4)ncc3Cl)n[nH]2)ccc1C=O [Compound 7]
- Covalent binding site identified in TRKA (TRKA (440-796) [2]): Lys544
- Modification rate of Lys544 (TRKA (440-796) [2]; TRKA + compound, 25 °C, 2 h): 95%
- IC50 (TRKA): 11.5 nM
- Phosphorylation of TRKA and downstream AKT [3]: efficiently suppress the phosphorylation of TRKA as well as its downstream AKT
- Ki (TRKA (440-796) [4]): 800 nM
- k inact (inactivation rate) (TRKA (440-796) [4]; [8]): 0.0578 min^–1
- k inact/K I (TRKA (440-796) [4]; [8]): 1.20 × 10^3 M^–1·s^–1
- IC50 (TRKC): 1.9 nM
- Total binding rate of TRKA modified by compound [5]: 99.2%
- IC50 (TRKB): 1.04 nM

Structure (SMILES): CC(=O)Oc1ccc(CC(=O)Nc2nnc(N[C@@H]3CCN(c4cccnn4)C3)s2)cc1C#N [Compound 16]
- Intracellular reactive oxygen species (ROS) level (A549 cells [6]): significantly increased
- Acetylation of wild-type vs Lys320 mutant GAC at low concentrations (GAC^WT and GAC^K320A; ≤2 μM): selectively acetylated wild-type GAC, with no detectable modification of the Lys320 mutant
- Acetylation of wild-type vs Lys320 mutant GAC at higher concentrations (GAC^WT and GAC^K320A; ≥10 μM): emerging acetylation signals in the Lys320 mutant
- Glutamine-to-glutamate conversion (intracellular GLU/GLN ratio) (A549 cells [7]): marked reduction
- Cellular activity (A549 antiproliferative) (A549 cells [1]): enhanced antiproliferative activities
- Total protein products displaying acetylation (GAC (73-598); MS of GAC-16 after 8 h incubation at 25 °C): 71.05%

Structure (SMILES): C#Cc1cc(CC(=O)Nc2nnc(N[C@@H]3CCN(c4cccnn4)C3)s2)ccc1C=O [Compound 15]
- GAC enzymatic inhibition compared to the reversible inhibitor 13 (GAC): significantly enhanced GAC enzymatic inhibition
- Cellular activity (A549 antiproliferative) (A549 cells [1]): limited efficacy
- Covalent modification of GAC by intact protein MS (GAC (73-598); 8 h, 25 °C): confirmed covalent modification of GAC
